Test results reported in BindingDB's records for doi:10.1021/jm00159a020 (1986).

Test: Potency against rat brain adenosine A1 receptor at 10 uM

CCCCN(C)C(=O)[C@H]1OC(n2cnc3c(NC(CC)CC)ncnc32)[C@H](O)[C@@H]1O (stereo partly specified)
% displacement at 10 µM: 10%
